The results in this text go back to ChEMBL document CHEMBL3886330, “Substituted azoanthracene derivatives and intermediates for preparation thereof” (2015).

Glucagon-like peptide 1 receptor, sequence (P43220 whole entry): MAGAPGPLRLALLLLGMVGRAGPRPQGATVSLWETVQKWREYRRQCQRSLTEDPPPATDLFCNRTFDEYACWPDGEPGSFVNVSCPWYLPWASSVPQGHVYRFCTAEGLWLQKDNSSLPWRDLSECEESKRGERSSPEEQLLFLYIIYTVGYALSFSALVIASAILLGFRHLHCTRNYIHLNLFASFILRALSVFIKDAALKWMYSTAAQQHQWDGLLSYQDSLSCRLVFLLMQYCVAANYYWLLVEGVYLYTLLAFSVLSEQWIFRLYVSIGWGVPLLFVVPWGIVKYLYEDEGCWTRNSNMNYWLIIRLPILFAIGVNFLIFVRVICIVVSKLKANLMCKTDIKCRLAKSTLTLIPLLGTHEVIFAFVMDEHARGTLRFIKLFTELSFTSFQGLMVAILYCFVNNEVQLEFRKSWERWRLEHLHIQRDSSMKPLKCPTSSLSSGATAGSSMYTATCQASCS

This assay has as its target Glucagon-like peptide 1 receptor (Homo sapiens, UniProt P43220). Format: functional.
In general, EC50 refers to the concentration giving half of the maximal effect. High values mean weaker potency, low ones greater potency. In the case of `Cc1nc(C(=O)N2Cc3cc4c(cc3C[C@H]2C(=O)N[C@@H](Cc2ccc(Oc3ccnc(C)c3C)cc2)C(=O)O)OC[C@H](c2ccc(OCc3ccc(Cl)c(Cl)c3)cc2)O4)co1`, it took 177 nM to reach a half-maximal effect (EC50). To `N#Cc1ccc(-c2ccc(C[C@H](NC(=O)[C@@H]3Cc4cc5c(cc4CN3Cc3ccccc3C#N)OC(c3ccc(OCc4ccc(Cl)c(Cl)c4)cc3)CO5)C(=O)O)cc2)cc1` (stereo partly specified) belongs 657 nM.

`N#Cc1ccc(-c2ccc(C[C@H](NC(=O)[C@@H]3Cc4cc5c(cc4CN3C(=O)c3ccccc3)OC(c3ccc(OCc4ccc(Cl)c(Cl)c4)cc3)CN5)C(=O)O)cc2)cc1` (stereo partly specified) gave a 50% effective concentration (EC50) of 410 nM. With `Cc1ccc(COc2ccc(C3COc4cc5c(cc4O3)CN(S(=O)(=O)c3sc(N)nc3C)[C@H](C(=O)N[C@@H](Cc3ccc(-c4ccc(C#N)cc4)cc3)C(=O)O)C5)cc2)cc1Cl` (stereo partly specified), the EC50 came to 434 nM. Turning to `CCNc1nc(C)c(S(=O)(=O)N2Cc3cc4c(cc3C[C@H]2C(=O)N[C@@H](Cc2ccc(-c3ccc(F)cc3)cc2)C(=O)O)OCC(c2ccc(OCc3ccc(Cl)c(Cl)c3)cc2)O4)s1` (stereo partly specified), the EC50 turned out to be 131 nM. Turning to `Cc1nccc(-c2ccc(C[C@H](NC(=O)[C@@H]3Cc4cc5c(cc4CN3S(C)(=O)=O)O[C@@H](c3ccc(OCc4ccc(Cl)c(Cl)c4)cc3)CO5)C(=O)O)cc2)c1C`, the EC50 was found to be 267 nM. Turning to `Cc1nccc(-c2ccc(C[C@H](NC(=O)[C@@H]3Cc4cc5c(cc4CN3C(=O)c3cccc(Cl)c3)O[C@@H](c3ccc(OCc4ccc(Cl)c(Cl)c4)cc3)CO5)C(=O)O)cc2)c1C`, the EC50 worked out at 22 nM. Molecule `C[C@@H](NC(=O)N1Cc2cc3c(cc2C[C@H]1C(=O)N[C@@H](Cc1ccc(-c2ccc(C#N)cc2)cc1)C(=O)O)OC[C@H](c1ccc(OCc2ccc(Cl)c(Cl)c2)cc1)O3)c1ccccc1` registered an EC50 of 288 nM. As to `Cc1nccc(-c2ccc(C[C@H](NC(=O)[C@@H]3Cc4cc5c(cc4CN3C(=O)c3cnccn3)O[C@@H](c3ccc(OCc4ccc(Cl)c(Cl)c4)cc3)CO5)C(=O)O)cc2)c1C`, the EC50 worked out at 166 nM. As for `Cc1nccc(-c2ccc(C[C@H](NC(=O)[C@@H]3Cc4cc5c(cc4CN3C(=O)OCc3ccccc3)O[C@@H](c3ccc(OCc4ccc(Cl)c(Cl)c4)cc3)CO5)C(=O)O)cc2)c1C`, the EC50 turned out to be 23 nM.

The molecule `CC(=O)Nc1nc(C)c(S(=O)(=O)N2Cc3cc4c(cc3C[C@H]2C(=O)N[C@@H](Cc2ccc(-c3ccnc(C)c3C)cc2)C(=O)O)OC[C@H](c2ccc(OCc3ccc(Cl)c(Cl)c3)cc2)O4)s1` displayed an EC50 of 24 nM.

As to `Cc1nc(C(=O)N2Cc3cc4c(cc3C[C@H]2C(=O)N[C@@H](Cc2ccc(-c3ccc(C#N)cc3)cc2)C(=O)O)OC[C@H](c2ccc(OCc3ccc(Cl)c(Cl)c3)cc2)O4)c(C)o1`, the EC50 came to 156 nM. For `CC[C@@H](c1ccccc1)N1Cc2cc3c(cc2C[C@H]1C(=O)N[C@@H](Cc1ccc(-c2ccnc(F)c2)cc1)C(=O)O)OC[C@H](c1ccc(OCc2ccc(Cl)c(Cl)c2)cc1)O3`, the EC50 is 222 nM.

`Cc1nccc(-c2ccc(C[C@H](NC(=O)[C@@H]3Cc4cc5c(cc4CN3C(=O)N[C@H](C)c3ccccc3)O[C@@H](c3ccc(OCc4ccc(Cl)cc4Cl)cc3)CO5)C(=O)O)cc2)c1C` came in with an EC50 of 133 nM. On to `Cc1nccc(-c2ccc(C[C@H](NC(=O)[C@@H]3Cc4cc5c(cc4CN3C(=O)OCC(C)(C)C)O[C@@H](c3ccc(OCc4ccc(Cl)c(Cl)c4)cc3)CO5)C(=O)O)cc2)c1C`, for which the EC50 stood at 87 nM. As for `Cc1nc(NC2CCCC2)sc1S(=O)(=O)N1Cc2cc3c(cc2C[C@H]1C(=O)N[C@@H](Cc1ccc(-c2ccc(C#N)cc2)cc1)C(=O)O)OCC(c1ccc(OCc2ccc(Cl)c(Cl)c2)cc1)O3` (stereo partly specified), the EC50 came to 70 nM. `Cc1nccc(-c2ccc(C[C@H](NC(=O)[C@@H]3Cc4cc5c(cc4CN3C(=O)N(C(C)C)C(C)C)O[C@@H](c3ccc(OCc4ccc(Cl)c(Cl)c4)cc3)CO5)C(=O)O)cc2)c1C` displayed an EC50 of 73 nM. This EC50 and that of the molecule before are within 1.5-fold of each other. Molecule `CC[C@@H](c1ccccc1)N1Cc2cc3c(cc2C[C@H]1C(=O)N[C@@H](Cc1ccc(-c2ccc(C#N)nc2)cc1)C(=O)O)OC[C@H](c1ccc(OCc2ccc(Cl)c(Cl)c2)cc1)O3` came in with an EC50 of 154 nM. As for `CC[C@@H](c1ccccc1)N1Cc2cc3c(cc2C[C@H]1C(=O)N[C@@H](Cc1ccc(-c2ccnc(C)c2)cc1)C(=O)O)OC[C@H](c1ccc(OCc2ccc(Cl)c(Cl)c2)cc1)O3`, the figure is 20 nM; as for `Cc1nccc(-c2ccc(C[C@H](NC(=O)[C@@H]3Cc4cc5c(cc4CN3C(=O)c3oc4ccccc4c3C)O[C@@H](c3ccc(OCc4ccc(Cl)c(Cl)c4)cc3)CO5)C(=O)O)cc2)c1C`, 172 nM; as for `CC[C@@H](NC(=O)N1Cc2cc3c(cc2C[C@H]1C(=O)N[C@@H](Cc1ccc(-c2ccnc(C)c2C)cc1)C(=O)O)OC[C@H](c1ccc(OCc2ccc(Cl)c(Cl)c2)cc1)O3)c1ccccc1`, 126 nM. Consider `CCNc1nc(C)c(S(=O)(=O)N2Cc3cc4c(cc3C[C@H]2C(=O)N[C@@H](Cc2ccc(-c3ccc(Cl)cc3)cc2)C(=O)O)OCC(c2ccc(OCc3ccc(Cl)c(Cl)c3)cc2)O4)s1` (stereo partly specified), for which the EC50 is 264 nM. Against the preceding molecule, the EC50 is about 2.1-fold higher.

The molecule `Cc1nc(C(=O)N2Cc3cc4c(cc3C[C@H]2C(=O)N[C@@H](Cc2ccc(-c3ccnc(C)c3C)cc2)C(=O)O)OC[C@H](c2ccc(OCc3ccc(Cl)c(Cl)c3)cc2)O4)c(C(F)(F)F)o1` yielded an EC50 of 42 nM. Against the preceding molecule, the EC50 is about 6.3-fold lower.

In turn, `Cc1nc(NCC2CC2)sc1S(=O)(=O)N1Cc2cc3c(cc2C[C@H]1C(=O)N[C@@H](Cc1ccc(-c2ccc(C#N)cc2)cc1)C(=O)O)OCC(c1ccc(OCc2ccc(Cl)c(Cl)c2)cc1)O3` (stereo partly specified) came in with an EC50 of 75 nM. Against the preceding molecule, the EC50 is about 1.8-fold higher. As for `CCc1cc(-c2ccc(C[C@H](NC(=O)[C@@H]3Cc4cc5c(cc4CN3[C@@H](CC)c3ccccc3)O[C@@H](c3ccc(OCc4ccc(Cl)c(Cl)c4)cc3)CO5)C(=O)O)cc2)ccn1`, the figure is 13 nM; as for `Cc1nccc(Oc2ccc(C[C@H](NC(=O)[C@@H]3Cc4cc5c(cc4CN3C(=O)N[C@H](C)c3ccccc3)O[C@@H](c3ccc(OCc4ccc(Cl)c(Cl)c4)cc3)CO5)C(=O)O)cc2)c1C`, 115 nM; as for `CCCNc1nc(C)c(S(=O)(=O)N2Cc3cc4c(cc3C[C@H]2C(=O)N[C@@H](Cc2ccc(-c3ccc(C#N)cc3)cc2)C(=O)O)OCC(c2ccc(OCc3ccc(Cl)c(Cl)c3)cc2)O4)s1` (stereo partly specified), 67 nM. As for `CCCc1cc(-c2ccc(C[C@H](NC(=O)[C@@H]3Cc4cc5c(cc4CN3[C@@H](CC)c3ccccc3)O[C@@H](c3ccc(OCc4ccc(Cl)c(Cl)c4)cc3)CO5)C(=O)O)cc2)ccn1`, the figure is 83 nM; as for `Cc1nccc(-c2ccc(C[C@H](NC(=O)[C@@H]3Cc4cc5c(cc4CN3C(=O)Nc3ccc(Cl)cc3)O[C@@H](c3ccc(OCc4ccc(Cl)c(Cl)c4)cc3)CO5)C(=O)O)cc2)c1C`, 96 nM; as for `CCCCOC(=O)N1Cc2cc3c(cc2C[C@H]1C(=O)N[C@@H](Cc1ccc(-c2ccnc(C)c2C)cc1)C(=O)O)OC[C@H](c1ccc(OCc2ccc(Cl)c(Cl)c2)cc1)O3`, 64 nM. As for `Cc1nccc(Oc2ccc(C[C@H](NC(=O)[C@@H]3Cc4cc5c(cc4CN3C(=O)OCC(C)C)O[C@@H](c3ccc(OCc4ccc(Cl)c(Cl)c4)cc3)CO5)C(=O)O)cc2)c1C`, the figure is 311 nM.
